Measurements from US10538535B2, “Antitumoral compounds” (priority 2017, dated 2020).
Where two headings read alike, the source gives them in different places.

Key:
[1] = system: A2780 tumors; settings: A2780 xenograft
Procedure: (§2) Female athymic nu/nu mice (Harlan Laboratories Models, S. L. Barcelona, Spain or Envigo, Spain) were utilized for all experiments. Animal were housed in individually ventilated cages Sealsafe® Plus, Techniplast S.P.A.), up to ten per cage on a 12-hour light-dark cycle at 21-23° C. and 40-60% humidity. […] Animals were acclimated for at least 5 days prior to tumor implantation with a tumor cell suspension.
Culture cells were passaged every 3 to 5 days upon reaching confluence. Each animal was subcutaneously implanted (on the right flank using 26 G needle and a 1 cc syringe) at 4-6 weeks of age with 10×10^6 A2780 cells suspended in 0.05 mL of a solution consisting of 50% Matrigel® (Corning Incorporated Life Sciences) and 50% medium without serum or antibiotics.
(§3) Treatment tolerability was assessed by monitoring body weight evolution, clinical signs of systemic toxicity, as well as evidences of local damage in the injection site.
(§4) In xenograft studies with other cell lines: • Tumor volume was calculated using the equation (a·b^2)/2, where a: length (longest diameter) and b: width (shortest diameter) were measured in mm by using digital caliper (Fowler Sylvac, S235PAT).
(§5) Treatments producing >20% lethality and/or 20% net body weight loss were considered toxic.

[2] = system: H526 tumors; experiment: In vivo xenograft, human lung (SCLC) H526; settings: iv weekly, 32 and ET-736 0.5 mg/Kg
Procedure: (§6) Female athymic nu/nu mice (Harlan Laboratories Models, S. L. Barcelona, Spain or Envigo, Spain) were utilized for all experiments. Animal were housed in individually ventilated cages Sealsafe® Plus, Techniplast S.P.A.), up to ten per cage on a 12-hour light-dark cycle at 21-23° C. and 40-60% humidity. Mice were allowed free access to irradiated standard rodent diet (Tecklad 2914C) and sterilized water. Animals were acclimated for at least 5 days prior to tumor implantation with a tumor cell suspension.
H526 cells were grown as a suspension and maintained by addition of fresh medium, as the cell density increases, every 2 to 3 days. Every week, culture was reestablished by centrifugation of the suspension with subsequent resuspension in fresh medium at a concentration of 1×10^5 cell/mL. Each animal was subcutaneously implanted (on the right flank using 26 G needle and a 1 cc syringe) at 4-6 weeks of age with 5×10^6 H526 cells suspended in 0.05 mL of a solution consisting of 50% Matrigel® (Corning Incorporated Life Sciences) and 50% medium without serum or antibiotics.
as §3, §5

[3] = system: HGC27 tumors; settings: HGC27 xenograft
Procedure: as §2
HGC27 cells were maintained in vitro at 37° C. with 5% CO2 in Iscove's Modified Dulbecco's Medium (Sigma Aldrich, Co). Culture cells were passage every 3 to 5 days on reaching confluence. Each animal was subcutaneously implanted (on the right flank using 26 G needle and a 1 cc syringe) at 4-6 weeks of age with 5×10^6 HGC-27 cells suspended in 0.05 mL of a solution consisting of 50% Matrigel® (Corning Incorporated Life Sciences), 50% medium without serum or antibiotics.
as §3, §5

[4] = system: HT29 cells; experiment: cells; settings: Homo sapiens, HT-29, 72 h
How it was run: (§1)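 Cells seeded at 5000/well, attached 18 h, then treated 72 h with ten 2/5 serial dilutions (10 to 0.003 μg/mL, 1% final DMSO) in triplicate. Growth measured by SRB staining after glutaraldehyde fixation, with time-zero plate; values from NCI algorithm and four-parameter logistic fit.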

[5] = system: MDA-MB-231 cells; experiment: cells; settings: Homo sapiens, MDA-MB-231, 72 h
How it was run: as §1

[6] = system: PSN1 cells; experiment: cells; settings: Homo sapiens, PSN1, 72 h
How it was run: as §1

[7] = system: A549 cells; experiment: cells; settings: Homo sapiens, A549, 72 h
How it was run: as §1

[8] = system: H82 tumors; experiment: In vivo xenograft, human lung (SCLC) H82; settings: iv weekly, 32 and ET-736 0.5 mg/Kg
Procedure: as §6
H82 cells were grown as a suspension and maintained by addition of fresh medium, as the cell density increases, every 2 to 3 days. Every week, culture was reestablished by centrifugation of the suspension with subsequent resuspension in fresh medium at a concentration of 1×10^5 cell/ml. Animals were subcutaneously implanted (on the right flank using 26 G needle and a 1 cc syringe) at 4-6 weeks of age with 5×10^6 H82 cells, suspended in 0.05 mL of a solution consisting of 50% Matrigel® (Corning Incorporated Life Sciences) and 50% medium without serum or antibiotics.
as §3, §4, §5
Tables and figures summarize the data obtained from complete experimental groups, i.e. those groups keeping the initial number of animals, n=8-10.

[9] = system: H460 tumors; settings: iv, 0.5 mg/kg
Procedure: as §2
H460 cells were maintained in vitro at 37° C. with 5% CO2 in Dulbecco's Modified Eagle's Medium (Sigma-Aldrich, Co). Culture cells were passaged every 3 to 5 days upon reaching confluence. Each animal was subcutaneously implanted (on the right flank using 26 G needle and a 1 cc syringe) at 4-6 weeks of age with 5×10^6 H460 cells suspended in 0.05 mL of a solution consisting of 50% Matrigel® (Corning Incorporated Life Sciences) and 50% medium without serum or antibiotics.
as §3, §5

COc1c(C)cc2c(c1O)[C@@H]1[C@@H]3[C@@H]4SC[C@]5(NCCc6c5[nH]c5ccccc65)C(=O)OC[C@@H](c5c6c(c(C)c(OC(C)=O)c54)OCO6)N3[C@@H](O)[C@H](C2)N1C [ET-736, Ecteinascidin 736]
Median Tumor Volume ([1]; Day 0): 168.8 mm^3
Median Tumor Volume ([1]; Day 2): 251.2 mm^3
Median Tumor Volume ([1]; Day 5): 382.6 mm^3
Median Tumor Volume ([1]; Day 7): 676.1 mm^3
Median Tumor Volume ([1]; Day 9): 959.4 mm^3
Median Tumor Volume ([1]; Day 12): 1241.5 mm^3
Median Tumor Volume ([1]; Day 14): 1582.7 mm^3
Median Tumor Volume ([1]; Day 16): 1646.4 mm^3
Median Tumor Volume ([1]; Day 19): 1845.5 mm^3
Median Tumor Volume ([1]; Day 21): 2025.0 mm^3
Median Tumor Volume ([2]; Table 63, Day 0): 213.5 mm^3
Median Tumor Volume ([2]; Table 63, Day 2): 240.5 mm^3
Median Tumor Volume ([2]; Table 63, Day 4): 97.2 mm^3
Median Tumor Volume ([2]; Table 63, Day 7): 48.8 mm^3
Median Tumor Volume ([2]; Table 63, Day 9): 62.5 mm^3
Median Tumor Volume ([2]; Table 63, Day 11): 62.5 mm^3
Median Tumor Volume ([2]; Table 63, Day 14): 47.3 mm^3
Median Tumor Volume ([2]; Table 63, Day 16): 32.0 mm^3
Median Tumor Volume ([2]; Table 63, Day 21): 4.0 mm^3
Median Tumor Volume ([2]; Table 63, Day 28): 4.0 mm^3
Median Tumor Volume ([2]; Table 63, Day 35): 4.0 mm^3
Median Tumor Volume ([2]; Table 63, Day 42): 4.0 mm^3
Median Tumor Volume ([2]; Table 63, Day 49): 4.0 mm^3
Median Tumor Volume ([2]; Table 63, Day 56): 4.0 mm^3
Median Tumor Volume ([2]; Table 63, Day 63): 4.0 mm^3
Median Tumor Volume ([2]; Table 63, Day 70): 4.0 mm^3
Median Tumor Volume ([2]; Table 63, Day 77): 4.0 mm^3
Median Tumor Volume ([2]; Table 63, Day 84): 199.8 mm^3
Median Tumor Volume ([2]; Table 63, Day 91): 786.5 mm^3
Median Tumor Volume ([3]; Day 0): 195.9 mm^3
Median Tumor Volume ([3]; Day 2): 359.2 mm^3
Median Tumor Volume ([3]; Day 5): 537.6 mm^3
Median Tumor Volume ([3]; Day 7): 553.5 mm^3
Median Tumor Volume ([3]; Day 9): 604.7 mm^3
Median Tumor Volume ([3]; Day 12): 627.4 mm^3
Median Tumor Volume ([3]; Day 14): 648.0 mm^3
Median Tumor Volume ([3]; Day 16): 687.6 mm^3
Median Tumor Volume ([3]; Day 19): 760.0 mm^3
Median Tumor Volume ([3]; Day 21): 792.4 mm^3
Median Tumor Volume ([3]; Day 23): 818.9 mm^3
Median Tumor Volume ([3]; Day 26): 1026.1 mm^3
Median Tumor Volume ([3]; Day 28): 1354.9 mm^3
GI50 [4]: 0.0212 µM
CC50 ([4]; read-out: LC50): > 0.132 µM
IC (TGI) ([4]; read-out: TGI): 0.0225 µM
GI50 [5]: 0.0212 µM
CC50 ([5]; read-out: LC50): 0.0477 µM
IC (TGI) ([5]; read-out: TGI): 0.0252 µM
GI50 [6]: 0.0397 µM
CC50 ([6]; read-out: LC50): 0.102 µM
IC (TGI) ([6]; read-out: TGI): 0.0596 µM
GI50 [7]: 0.0225 µM
CC50 ([7]; read-out: LC50): > 0.132 µM
IC (TGI) ([7]; read-out: TGI): 0.0477 µM
Median Tumor Volume ([8]; Table 64, Day 0): 170.0 mm^3
Median Tumor Volume ([8]; Table 64, Day 2): 334.4 mm^3
Median Tumor Volume ([8]; Table 64, Day 5): 539.4 mm^3
Median Tumor Volume ([8]; Table 64, Day 7): 836.4 mm^3
Median Tumor Volume ([8]; Table 64, Day 9): 1013.1 mm^3
Median Tumor Volume ([8]; Table 64, Day 12): 1290.9 mm^3
Median Tumor Volume ([8]; Table 64, Day 14): 1648.0 mm^3
Median Tumor Volume ([9]; 0 h): 185.8 mm^3
Median Tumor Volume ([9]; 48 h): 457.8 mm^3
Median Tumor Volume ([9]; 120 h): 732.8 mm^3
Median Tumor Volume ([9]; 168 h): 930.1 mm^3
Median Tumor Volume ([9]; 336 h): 1845.5 mm^3
Median Tumor Volume ([9]; 384 h): 2025.0 mm^3
